{"source": "patent US20240270658A1", "about": "“Use of an N-Functionalized Alkoxy Pyrazole Compound as Nitrification Inhibitor” (BASF SE, priority 2021, published 2024)", "key": {"[1]": {"assay": "Volatility of prior-art nitrification inhibitor", "type": "physicochemical", "details": "statement in words on the prior-art compound", "source_text": "Sharma et al. (J P Sharma, H K Taneja, S S Tomar Pesticide Research Journal, 2006, 18(1), 7-11) inter alia discloses 3-ethoxy-5-methylpyrazole as nitrification inhibitor."}, "[2]": {"system": "nitrification (soil Limburgerhof, microbial biomass)", "assay": "Comparison of % NH4-N recovery in soil incubation, data pooled from different trials", "details": "average pooled from different trials", "description": "Examples 2 and 3 were further tested with regard to Comparative Example 1 in terms of the % NH4—N recovery. 100 g Soil (soil Limburgerhof with pH(CaCl2) 6.8; 73% sand, 23% silt, 4% clay, which is classified according to FAO as a sandy loam) is filled into 500 ml plastic bottles and is moistened to 50% water holding capacity. The soil is incubated at 20° C. for two weeks prior to the experiments to activate the microbial biomass. 1 ml Test solution, containing the compounds of formula I or the comparative example in the appropriate concentration (0.3 or 1% (w/w) of fertilized NH4—N), and 10 mg nitrogen in the form of ammoniumsulfate-N(NH4—N) is added to the soil and everything mixed well. Unfertilized controls received 1 ml pure water. Bottles are capped but loosely to allow air exchange. The bottles are then incubated at 20° C. for 14 days. For analysis, 300 ml of a 1% K2SO4-solution is added to the bottle containing the soil and shaken for 2 hours in a horizontal shaker at 150 rpm. Then the whole solution is filtered through a filter (Macherey-Nagel Filter MN 807%). Ammonium content is then analyzed in the filtrate using an autoanalyzer. Ammonium was quantified via an indophenol blue dye at 660 nm. The nitrification inhibition is expressed as % of NH4—N recovery from fertilized NH4—N (100%) after subtraction of unfertilized control soil. For comparison of the % NH4—N recovery of the compounds of the invention, i.e. Examples 2 and 3, with comparative example 1 as shown below from different trials, the standard deviation of a common treatment of all trials with DMPP (3,4-dimethylpyrazole phosphate) was calculated. Based on this calculation the data from different trials can be pooled together to calculate an average % NH4—N recovery for the compounds of the invention and the comparative compound as shown below."}, "[3]": {"assay": "Stability (recovery experiment) of nitrification inhibitor on treated fertilizer granules", "type": "physicochemical", "details": "dose NI 1 % NH4N; for NI on fertilizer granules [%] after storage 4 weeks 20° C.: open beaker, 50% rH; for NI on fertilizer granules [%] initial: sample stored at -18° C.", "description": "Examples 2 and 3 were further tested with regard to Comparative Example 1 in terms of their stability (recovery experiment)\nAmmonium Sulphate Nitrate (ASN) fertilizer granules and Diammonium phosphate (DAP) fertilizer granules were treated with liquid preparations of the Nitrification Inhibitor (NI) of example 2 and 3 and Comparative Example 1.\nFor the recovery experiment, a small amount (˜10g) of each treated fertilizer sample was filled into a closed glass vial and stored at −18° C. Another 250 g of each treated fertilizer sample were filled into an open glass beaker and stored at 20° C. and 50% relative humidity (rH). After four weeks of storage, 50g of the samples stored at 20° C. and 50% rH were drawn from the bottom and analyzed by HPCL for NI content in comparison to the −18° C. sample. The recovery is given in % as ratio of the NI content of the 20° C. sample divided by the NI content of the −18° C. sample."}, "[4]": {"system": "nitrification (soil Limburgerhof, microbial biomass)", "assay": "Inhibition of nitrification in soil incubation (NH4-N recovery and NO3-N formation)", "details": "14 days after treatment, 20° C.", "description": "The soil is incubated at 20° C. for two weeks prior to the experiments to activate the microbial biomass. 1 ml test solution, containing the compounds of formula I in the appropriate concentration (usually 0.3 or 1% (w/w) of fertilized NH4—N), and 10 mg nitrogen in the form of ammoniumsulfate-N(NH4—N) is added to the soil and everything mixed well. Unfertilized controls received 1 ml pure water. Bottles are capped but loosely to allow air exchange. The bottles are then incubated at 20° C. for 0 and 14 days. For analysis, 300 ml of a 1% K2SO4-solution is added to the bottle containing the soil and shaken for 2 hours in a horizontal shaker at 150 rpm. Then the whole solution is filtered through a filter (Macherey-Nagel Filter MN 807%). Ammonium and nitrate content is then analyzed in the filtrate using an autoanalyzer. Ammonium was quantified via an indophenol blue dye at 660 nm, and nitrate via an azo dye at 540 nm. The nitrification inhibition is expressed as % of NH4—N recovery from fertilized NH4—N (100%) after subtraction of unfertilized control soil, and as % inhibition of NO3—N formation (% reduction of NO3^− production) according to the formula: [formula]"}, "[5]": {"details": "applied dose 0.3 wt.-% relative to NH4-N"}, "[6]": {"details": "applied dose 1.0 wt.-% relative to NH4-N"}}}
{"smiles": "CCOc1cc(C)[nH]n1", "note": "[3-ethoxy-5-methylpyrazole]", "values": [{"measurement": "volatility", "setting": "[1]", "value": "high volatility"}]}
{"smiles": "CCOc1cc(C)nn1CO", "note": "[Comparative Example 1, reference compound]", "values": [{"measurement": "% NH4-N recovery after 14 days", "setting": "[2]; 0.3 wt.-% relative to NH4-N", "value": 36, "unit": "%"}, {"measurement": "% NH4-N recovery after 14 days", "setting": "[2]; 1 wt.-% relative to NH4-N", "value": 46, "unit": "%"}, {"measurement": "NI on fertilizer granules [%] after storage 4 weeks 20° C.", "setting": "[3]; ASN fertilizer granules", "value": 0.000, "unit": "%"}, {"measurement": "NI on fertilizer granules [%] initial", "setting": "[3]; ASN fertilizer granules", "value": 0.034, "unit": "%"}, {"measurement": "NI on fertilizer granules [%] after storage 4 weeks 20° C.", "setting": "[3]; DAP fertilizer granules", "value": 0.057, "unit": "%"}, {"measurement": "NI on fertilizer granules [%] initial", "setting": "[3]; DAP fertilizer granules", "value": 0.110, "unit": "%"}]}
{"smiles": "CCCCCCCOC(=O)n1nc(C)cc1OC", "note": "[Example 1]", "values": [{"measurement": "average inhibition % of NO3 DAT14 (n = 4)", "setting": "[4]; [5]", "value": 44, "unit": "%"}, {"measurement": "average recovery % NH4-N DAT14 (n = 4)", "setting": "[4]; [5]", "value": 40, "unit": "%"}, {"measurement": "average inhibition % of NO3 DAT14 (n = 4)", "setting": "[4]; [6]", "value": 82, "unit": "%"}, {"measurement": "average recovery % NH4-N DAT14 (n = 4)", "setting": "[4]; [6]", "value": 68, "unit": "%"}]}
{"smiles": "CCCCCCCOC(=O)n1nc(OC)cc1C", "note": "[Example 2]", "values": [{"measurement": "average inhibition % of NO3 DAT14 (n = 4)", "setting": "[4]; [5]", "value": 60, "unit": "%"}, {"measurement": "average recovery % NH4-N DAT14 (n = 4)", "setting": "[4]; [5]", "value": 55, "unit": "%"}, {"measurement": "average inhibition % of NO3 DAT14 (n = 4)", "setting": "[4]; [6]", "value": 89, "unit": "%"}, {"measurement": "average recovery % NH4-N DAT14 (n = 4)", "setting": "[4]; [6]", "value": 66, "unit": "%"}, {"measurement": "% NH4-N recovery after 14 days", "setting": "[2]; 0.3 wt.-% relative to NH4-N", "value": 47, "unit": "%"}, {"measurement": "% NH4-N recovery after 14 days", "setting": "[2]; 1 wt.-% relative to NH4-N", "value": 58, "unit": "%"}, {"measurement": "NI on fertilizer granules [%] after storage 4 weeks 20° C.", "setting": "[3]; DAP fertilizer granules", "value": 0.015, "unit": "%"}, {"measurement": "NI on fertilizer granules [%] initial", "setting": "[3]; DAP fertilizer granules", "value": 0.023, "unit": "%"}]}
{"smiles": "CCOC(=O)CC(=O)n1nc(OC)cc1C", "note": "[Example 3]", "values": [{"measurement": "average inhibition % of NO3 DAT14 (n = 4)", "setting": "[4]; [5]", "value": 60, "unit": "%"}, {"measurement": "average recovery % NH4-N DAT14 (n = 4)", "setting": "[4]; [5]", "value": 49, "unit": "%"}, {"measurement": "average inhibition % of NO3 DAT14 (n = 4)", "setting": "[4]; [6]", "value": 90, "unit": "%"}, {"measurement": "average recovery % NH4-N DAT14 (n = 4)", "setting": "[4]; [6]", "value": 71, "unit": "%"}, {"measurement": "% NH4-N recovery after 14 days", "setting": "[2]; 0.3 wt.-% relative to NH4-N", "value": 41, "unit": "%"}, {"measurement": "% NH4-N recovery after 14 days", "setting": "[2]; 1 wt.-% relative to NH4-N", "value": 64, "unit": "%"}, {"measurement": "NI on fertilizer granules [%] after storage 4 weeks 20° C.", "setting": "[3]; ASN fertilizer granules", "value": 0.113, "unit": "%"}, {"measurement": "NI on fertilizer granules [%] initial", "setting": "[3]; ASN fertilizer granules", "value": 0.116, "unit": "%"}, {"measurement": "NI on fertilizer granules [%] after storage 4 weeks 20° C.", "setting": "[3]; DAP fertilizer granules", "value": 0.044, "unit": "%"}, {"measurement": "NI on fertilizer granules [%] initial", "setting": "[3]; DAP fertilizer granules", "value": 0.052, "unit": "%"}]}
{"smiles": "COc1cc(C)n(C(=O)C2CCOCC2)n1", "note": "[Example 4]", "values": [{"measurement": "average inhibition % of NO3 DAT14 (n = 4)", "setting": "[4]; [5]", "value": 33, "unit": "%"}, {"measurement": "average recovery % NH4-N DAT14 (n = 4)", "setting": "[4]; [5]", "value": 40, "unit": "%"}, {"measurement": "average inhibition % of NO3 DAT14 (n = 4)", "setting": "[4]; [6]", "value": 82, "unit": "%"}, {"measurement": "average recovery % NH4-N DAT14 (n = 4)", "setting": "[4]; [6]", "value": 66, "unit": "%"}]}
{"smiles": "COc1cc(C)n(C(=O)c2cccc(F)c2)n1", "note": "[Example 5]", "values": [{"measurement": "average inhibition % of NO3 DAT14 (n = 4)", "setting": "[4]; [5]", "value": 20, "unit": "%"}, {"measurement": "average recovery % NH4-N DAT14 (n = 4)", "setting": "[4]; [5]", "value": 25, "unit": "%"}, {"measurement": "average inhibition % of NO3 DAT14 (n = 4)", "setting": "[4]; [6]", "value": 50, "unit": "%"}, {"measurement": "average recovery % NH4-N DAT14 (n = 4)", "setting": "[4]; [6]", "value": 39, "unit": "%"}]}
